According to patent US6551790B2, “Process for glucuronidation screening” (PanVera LLC, priority 1998, dated 2003):
Residue numbers refer to the chain shown, from its start. Names may count otherwise. “Also recorded” adds a separate entry of the source. Like-named read-outs stand apart in the source and are kept apart here.

Assays:
[1] = cited from earlier work
recombinant human UGT1A6 = recombinant human UGT1A6 (Homo sapiens, UniProt P19224)
Description: Two approaches were taken to test the feasibility of coupling the UGT-dependent production of glucuronides to inhibition of fluorescent product formation by β-D-glucuronidase. The first involved extracting the UGT reaction products and adding them to the β-D-glucuronidase fluorescence assay reagents. The second involved adding the β-D-glucuronidase reaction components directly to the quenched UGT reaction. […] Following extraction, 4-methylumbelliferyl-β-D-glucuronide assay reagents were added to the extracted, dried reaction residues.
In the second approach, 4-methylumbelliferyl-β-D-glucuronide assay reagents were added directly to a β-naphthyl glucuronidation assay that was performed in a 96 well plate. […] The horogeneous format circumvented the need for extraction, but required longer incubation periods with the recombinant enzyme.
After identifying a suitable β-glucuronidase and determining the optimal concentrations of vious assay components, the fluorescent assay was tested for its ability to detect β-glucuronides generated by a recombinant UGT enzyme. […] To establish the feasibility of performing the assay in an HTS format, the assay was conducted in a 96 well plate in a homogenous format, i.e., without extracting the glucuronide produced in the UGT reaction prior to starting the β-glucuronidase reaction.

[2] = molecular target: T1, bacterial β-glucuronidase (Escherichia coli, UniProt P05804); assay: Inhibition of 4-methylumbelliferyl-β-D-glucuronide cleavage by β-D-glucuronides; type: biochemical; set-up: purchased Sigma, St. Louis Mo; G-7396; settings: for inhibition of 4-methylumbelliferyl-β-D-glucuronide cleavage (production of 4-methylumbelliferone): FIG. 2, varying glucuronide concentrations
Description: FIG. 2 depicts the effect of varying concentrations of β-D-glucuronide on the ability of β-glucuronidase to cleave various substrates.
Tetrahydrocortisone 3-β-D-glucuronide was obtained from Molecular Probes, Eugene, Oreg. Recombinant control and UGT1A6 membrane preparations were generated and are commercially available from PanVera Corporation, Madison Wis. All other reagents were analytical grade or better and purchased from a variety of commercial sources.
In order to show the feasibility of developing a high throughput inhibition assay, we examined the potential of a variety of structurally dissimilar, commercially available β-D-glucuronides to act as inhibitors for the cleavage of 4-methylumbelliferyl-β-D-glucuronide. These β-D-glucuronides represent compounds that might potentially be formed by UGT activity e.g. phenol and steroid glucuronides.

UGT2B7Y(268) [3] = molecular target: T2, UGT2B7Y(268) (Homo sapiens, UniProt P16662); assay: Kinetics of glucuronidation, membrane preparations of HK293 cells stably expressing UGT2B7Y(268)
T2 sequence (P16662 24-529): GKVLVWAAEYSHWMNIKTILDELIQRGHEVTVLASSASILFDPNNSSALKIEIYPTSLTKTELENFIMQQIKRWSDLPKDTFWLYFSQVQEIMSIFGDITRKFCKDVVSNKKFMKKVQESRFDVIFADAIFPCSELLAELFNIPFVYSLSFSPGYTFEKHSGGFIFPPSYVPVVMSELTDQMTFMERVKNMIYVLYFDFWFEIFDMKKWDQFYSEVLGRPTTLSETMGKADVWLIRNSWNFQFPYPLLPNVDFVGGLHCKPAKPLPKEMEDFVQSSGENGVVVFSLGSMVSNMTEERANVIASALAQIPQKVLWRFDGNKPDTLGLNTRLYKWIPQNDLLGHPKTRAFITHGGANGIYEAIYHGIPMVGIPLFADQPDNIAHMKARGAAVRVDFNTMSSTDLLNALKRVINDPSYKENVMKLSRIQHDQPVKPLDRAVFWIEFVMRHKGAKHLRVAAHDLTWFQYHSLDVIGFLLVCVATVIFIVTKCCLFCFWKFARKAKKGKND

UGT2B7 = molecular target: T3, UGT2B7 (Homo sapiens, UniProt P16662)
T3 sequence (P16662 24-529): T2 sequence (P16662 24-529)
Description: Heterologous expression and characterization of full length UGT 2B7.
Stable UGT2B7 cell lines were established from embryonic human kidney cells (HK293 cells) and microsomal membrane fractions from these cells were used to assess the properties of the recombinant enzyme. […] The specificity of the purified UGT2B7 will be assessed by determining overall catalytic efficiency with each aglycone substrate, as reflected in a ratio of the two fundamental Michaelis kinetic parameters, Vmax/Km. Reaction rates will be determined over a range of substrate concentrations and nonlinear regression will be used to fit the UGT rate data to velocity versus substrate curves (Graph Pad, Prism). Vmax/Km values will be determined and compared with those determined with the enzyme isolated from HK293 cells (Table 1). […] This ratio will be determined for the purified enzyme using HPLC-based methods for separation and quantification of the two glucuronides.

UGT2B7Y(268) [4] = molecular target: T2, UGT2B7Y(268)
UGT2B7H(268) [5] = molecular target: T4, UGT2B7H(268) (Homo sapiens, UniProt P16662, Y268H)
T4 sequence (P16662 24-529 Y268H): T2 sequence (P16662 24-529) with Y245H

UGT2B7Y(268) [6] = molecular target: T2, UGT2B7Y(268); assay: in vitro
UGT2B7H(268) [7] = molecular target: T4, UGT2B7H(268); assay: in vitro
UGT2B7H(268) [8] = molecular target: T4, UGT2B7H(268); assay: Kinetics of glucuronidation, membrane preparations of HK293 cells stably expressing UGT2B7H(268)
[9] = molecular target: T1, bacterial β-glucuronidase; settings: read-out: apparent Km value for cleavage by β-glucuronidase; linear conditions of protein concentration and incubation time; FIG. 1
UGT2B7Y(268) [10] = molecular target: T2, UGT2B7Y(268); settings: reported by one laboratory; cited from earlier work
UGT2B7H(268) [11] = molecular target: T4, UGT2B7H(268); settings: reported by another laboratory; cited from earlier work
[12] = substrate: C=CCN1CC[C@]23c4c5ccc(O)c4O[C@H]2C(=O)CC[C@@]3(O)[C@H]1C5; assay: cells, lysate or membranes named; settings: two values = two different passages of cultured cells
[13] = substrate: C=CCN1CC[C@]23c4c5ccc(O)c4O[C@H]2[C@@H](O)C=C[C@H]3[C@H]1C5; assay: cells, lysate or membranes named
[14] = substrate: CN1CC[C@]23c4c5ccc(O)c4O[C@H]2C(=O)CC[C@@]3(O)[C@H]1C5; assay: cells, lysate or membranes named
[15] = substrate: O=C1CC[C@@]2(O)[C@H]3Cc4ccc(O)c5c4[C@@]2(CCN3CC2CC2)[C@H]1O5; assay: cells, lysate or membranes named; settings: two values = two different passages of cultured cells

T1 sequence (P05804 whole entry): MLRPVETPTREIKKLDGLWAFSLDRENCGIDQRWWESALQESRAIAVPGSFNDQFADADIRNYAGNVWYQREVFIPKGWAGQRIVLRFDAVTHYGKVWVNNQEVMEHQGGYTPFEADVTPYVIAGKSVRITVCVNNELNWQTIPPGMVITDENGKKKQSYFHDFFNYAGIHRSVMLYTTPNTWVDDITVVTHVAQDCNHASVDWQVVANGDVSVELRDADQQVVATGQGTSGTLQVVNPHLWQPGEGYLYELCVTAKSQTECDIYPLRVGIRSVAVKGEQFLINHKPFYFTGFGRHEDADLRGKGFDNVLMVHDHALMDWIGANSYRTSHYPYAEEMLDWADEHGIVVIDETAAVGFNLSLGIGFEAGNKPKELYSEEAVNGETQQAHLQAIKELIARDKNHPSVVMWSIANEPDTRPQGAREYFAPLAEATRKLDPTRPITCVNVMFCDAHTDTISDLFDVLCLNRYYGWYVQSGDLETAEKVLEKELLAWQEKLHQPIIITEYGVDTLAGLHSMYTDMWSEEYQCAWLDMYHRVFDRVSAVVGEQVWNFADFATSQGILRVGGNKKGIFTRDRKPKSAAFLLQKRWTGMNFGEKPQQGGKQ
Chain of recombinant human UGT1A6 (P19224 27-532): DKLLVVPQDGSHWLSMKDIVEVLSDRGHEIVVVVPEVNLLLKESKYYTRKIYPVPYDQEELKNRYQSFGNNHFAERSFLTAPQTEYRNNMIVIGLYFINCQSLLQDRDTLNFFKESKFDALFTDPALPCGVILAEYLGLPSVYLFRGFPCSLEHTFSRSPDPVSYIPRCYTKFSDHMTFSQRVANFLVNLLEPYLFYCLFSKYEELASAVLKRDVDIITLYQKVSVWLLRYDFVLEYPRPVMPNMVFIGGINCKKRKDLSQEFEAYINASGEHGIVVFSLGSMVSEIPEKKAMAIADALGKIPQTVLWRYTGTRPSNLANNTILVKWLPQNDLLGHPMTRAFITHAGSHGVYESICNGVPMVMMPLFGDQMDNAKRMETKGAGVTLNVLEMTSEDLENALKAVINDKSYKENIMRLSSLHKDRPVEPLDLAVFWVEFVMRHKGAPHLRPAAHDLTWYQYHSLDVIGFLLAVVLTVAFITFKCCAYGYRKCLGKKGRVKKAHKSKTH

In the case of `CN1CC[C@]23c4c5ccc(O[C@@H]6O[C@H](C(=O)O)[C@@H](O)[C@H](O)[C@H]6O)c4O[C@H]2[C@@H](O)C=C[C@H]3[C@H]1C5` [morphine-3-O-glucuronide], the analgesic effects ([1]; human, in vivo) is given as “devoid of analgesic effects” and the “effect on the analgesic activity of morphine and morphine-6-O-glucuronide” value ([1]; human, in vivo) is given as “counteract”.

With `Oc1cccc2ccccc12` [α-naphthol] the “4-methylumbelliferyl β-D-glucuronide cleavage slower with UGT1A6 assay compared to control” value (recombinant human UGT1A6) was 60% and the “non-specific interference of the aglycone with the cleavage assay” value ([2]; residues from 0 time point extractions, FIG. 3 panel A) was “does not interfere non-specifically”.

In the case of `C[C@]12CC[C@@H]3c4ccc(O[C@@H]5O[C@H](C(=O)O)[C@@H](O)[C@H](O)[C@H]5O)cc4CC[C@H]3[C@@H]1CC[C@@H]2O` [β-estradiol-3-(β-D-glucuronide)], the “inhibition of 4-methylumbelliferyl-β-D-glucuronide cleavage (production of 4-methylumbelliferone)” value (shortened to “inhibition”) [2] is reported as “strongest” and the “inhibition” value ([2]; listed as estradiol β-D-glucuronide) is reported as “More potent inhibitors”.

For `O=C1CC[C@@]2(O)[C@H]3Cc4ccc(O)c5c4[C@@]2(CCN3CC2CC2)[C@H]1O5` [naltrexone], the Vmax (UGT2B7Y(268) [3]) was 840, 1130 pmol/min/mg protein.

For `O=C(O)[C@H]1O[C@H](OP(=O)(O)OP(=O)(O)OC[C@H]2O[C@@H](n3ccc(=O)[nH]c3=O)[C@H](O)[C@@H]2O)[C@H](O)[C@@H](O)[C@@H]1O` [UDPGA, Uridine 5′-diphosphoglucuronic acid], the “inhibition” value [2] was “not an effective competitor”.

For `COc1ccc2c3c1O[C@H]1[C@@H](O)C=C[C@H]4[C@@H](C2)N(C)CC[C@@]341` [codeine], the “Glucuronidation activity towards opioids” value (UGT2B7) was “demonstrated”, the “conversion to the 6-O-glucuronide by UGT2B7” value (UGT2B7) was “efficiently converted” and the “efficiency ratio of glucuronidation, 3-OH to 6-OH” value (UGT2B7; human, pH 7.7) was 7 to 1. The Km (UGT2B7Y(268) [4]; human) was 360 µM, the Km (UGT2B7H(268) [5]; human) was 550 µM and the Km (UGT2B7Y(268) [6]) was 230 µM. For the same molecule, the Km (UGT2B7H(268) [7]) was 791 µM, the Vmax (UGT2B7Y(268) [3]) was 190, 40 pmol/min/mg protein and the Vmax (UGT2B7H(268) [8]) was 97, 110 pmol/min/mg protein.

With `CC(C)NC[C@@H](O)COc1cccc2ccccc12` [R-propanolol] the “Efficiency Vmax/Km (x100)” value (UGT2B7Y(268) [4]) was 53, the Km (UGT2B7Y(268) [4]) was 180 µM and the “Efficiency Vmax/Km (x100)” value (UGT2B7H(268) [5]) was 192. The Vmax (UGT2B7Y(268) [3]) was 96 pmol/min/mg protein and the Vmax (UGT2B7H(268) [8]) was 194, 86 pmol/min/mg protein.

With `CC(C)NC[C@H](O)COc1cccc2ccccc12` [S-propanolol] the “Efficiency Vmax/Km (x100)” value (UGT2B7Y(268) [4]) was 38, 259, the “Efficiency Vmax/Km (x100)” value (UGT2B7H(268) [5]) was 205 and the Km (UGT2B7H(268) [5]) was 72 ± 19 µM. The Vmax (UGT2B7Y(268) [3]) was 70, 140 pmol/min/mg protein and the Vmax (UGT2B7H(268) [8]) was 148 ± 30 pmol/min/mg protein.

With `C=CCN1CC[C@]23c4c5ccc(O)c4O[C@H]2[C@@H](O)C=C[C@H]3[C@H]1C5` [nalorphine] the “Glucuronidation activity towards opioids” value (UGT2B7) was “demonstrated”.

For `Cc1cc(=O)oc2cc(O[C@@H]3O[C@H](C(=O)O)[C@@H](O)[C@H](O)[C@H]3O)ccc12` [4-methylumbelliferyl-β-D-glucuronide], the Km [9] was about 56 µM.

In the case of `CC1CCC(C(C)C)C(O)C1` (stereo not shown) [menthol], the “activity toward glucuronide formation” value (UGT2B7Y(268) [10]) is listed as “active” and the “activity toward glucuronide formation” value (UGT2B7H(268) [11]) is listed as “inactive”.

With `CN1CC[C@]23c4c5ccc(O)c4O[C@H]2[C@@H](O)C=C[C@H]3[C@H]1C5` [morphine] the “Glucuronidation activity towards opioids” value (UGT2B7) was “demonstrated”.

For `O=C(O)[C@H]1O[C@@H](Oc2cccc3ccccc23)[C@H](O)[C@@H](O)[C@@H]1O` [α-naphthyl β-D-glucuronide], the “inhibition” value [2] was “weakest; also recorded: weak competitor” and the “inhibition” value ([2]; listed as α-naphthol β-D-glucuronide) was “weak competitive inhibitor”.

For `CN1CC[C@]23c4c5ccc(O)c4O[C@H]2[C@@H](O[C@@H]2O[C@H](C(=O)O)[C@@H](O)[C@H](O)[C@H]2O)C=C[C@H]3[C@H]1C5` [morphine-6-O-glucuronide], the “effectiveness as an analgesic relative to the parent compound” value ([1]; clinical studies, versus morphine) is given as 2-3 times.

In the case of `C=CCN1CC[C@]23c4c5ccc(O)c4O[C@H]2C(=O)CC[C@@]3(O)[C@H]1C5` [naloxone], the “Glucuronidation activity towards opioids” value (UGT2B7) is reported as “demonstrated”, the Vmax (UGT2B7Y(268) [3]; UGT2B7Y, two values = two different passages of cultured cells) is reported as 2550 pmol/min/mg protein and the Vmax (UGT2B7H(268) [8]; UGT2B7H, two values = two different passages of cultured cells) is reported as 4530 pmol/min/mg protein.

B1: UGT2B7Y(268) (Homo sapiens) (protein)
chain: T2 sequence (P16662 24-529)
In the case of B1, the Km ([12]; other: UGT2B7Y) is reported as 50, 40 μM, the Vmax ([12]; other: UGT2B7Y) is reported as 3750, 2550 pmol/min/mg protein and the Km [13] is reported as 77, 121 μM. The Vmax [13] was 2870, 3650 pmol/min/mg protein, the Km [14] was 1360, 900 μM and the Vmax [14] was 5640, 6040 pmol/min/mg protein. The Km ([15]; other: UGT2B7Y) was 140, 180 μM.

B2: UGT2B7H(268) (Homo sapiens; Y268H) (protein)
chain: T2 sequence (P16662 24-529) with Y245H
With B2 the Km ([12]; other: UGT2B7H) was 41, 60 μM, the Vmax ([12]; other: UGT2B7H) was 3810, 4530 pmol/min/mg protein and the Km [13] was 141, 171 μM. The Vmax [13] was 3990, 4670 pmol/min/mg protein, the Km [14] was 540, 670 μM and the Vmax [14] was 7510, 8570 pmol/min/mg protein. The Km ([15]; other: UGT2B7H) was 63, 200 μM.
